Assay results published in patent publication US11028361B2, “Compositions and methods for stabilizing susceptible compounds” (LIFE TECHNOLOGIES CORPORATION, priority 2011, dated 2021).

Legend:
[1] = tested on: DG44-EPO, a CHO cell line expressing recombinant erythropoietin; assay: Cell culture potency of ethanolamine derivatives (viable cell density); assay type: cell-based, Chinese hamster; settings: for Multiple of the ethanolamine molar equivalent yielding similar growth potential to ethanolamine: FIGS. 1A and 1B, titered up to 64× of a molar equivalent, viable cell density followed for 8 days
Description: We tested a range of ethanolamine derivatives for cell culture potency, including phosphorylethanolamine (PE), triethanolamine (TE), diethanolamine (DE), monomethylethanolamine (MME), dimethylethanolamine (DME), and N-acetylethanolaine (NAE). […] The cell line used was DG44-EPO, a CHO cell line expressing recombinant erythropoietin, that requires ethanolamine for good growth. Cells were inoculated at 3×10^5/ml and cultured bi-weekly for 3 subpassages in each condition prior to starting the assay. The assay was also inoculated at 3×10^5/ml but followed for 8 days for viable cell density from a ViCell cell counter.
Next we titered the compounds up to 64× of a molar equivalent. Both phoshorylethanolamine and NAE at about 16× the molar equivalent yielded similar growth potential to ethanolamine. In another set of experiments, NAE at about 16× the ethanolamine molar equivalent was again shown to be able to supplement an ethanolamine-sensitive line as well as ethanolamine. These latter experiments were performed in 24 well culture trays. Cells were inoculated at 1×10^5/ml and samples harvested at day 12. Because the nitrogen atom in NAE is contained within an amide structure, it is expected that NAE should be stable and can be used in place of ethanolamine in cell culture media.
The negative control is without ethanolamine. The line way above the rest should be disregarded—it is a CD CHO catalogue control, not relevant to this assay.

[2] = Microbeads protection studies during real-time ambient storage in AGT media (FIG. 8); assay type: physicochemical; settings: FIG. 8, AGT media, ambient conditions
Description: FIG. 8: Microbeads protection studies during real-time ambient storage.

HeLa cells = assay: HeLa cell growth with insulin-dendrimer-RGD conjugate, microencapsulated or not (FIG. 7B); assay type: cell-based; settings: for Potency and growth characteristics of HeLa cells: FIG. 7B
Description: FIG. 7B: Impact of microencapsulation of the insulin-dendrimer-RGD covalent conjugate on the growth of HeLa cell Growth.

[3] = Stability of insulin / insulin-dendrimer with and without alginate microencapsulation (FIG. 7A, FIG. 10); assay type: physicochemical
Experimental: Further examples for microencapsulating labile compounds other than ethanolamine are shown below. A sequestering agent like alginate was used to encapsulate or embed a dendrimer-insulin complex. The labile compound insulin was polymerized with PAMAM dendrimer, and further microencapsulated in alginate microbeads with or without PLL. Briefly, for dendrimer generation, PAMAM 2.5 (carboxylate surface groups) was used. Insulin was conjugated onto the dendrimer to which RGD sequences were also added to target the cell surface. The ratios of components in this complex was dendrimer:RGD:insulin=1:7:12.
Concentration of conjugate and alginate was adjusted as on attachment. Next conjugate was added to the alginate and mixed several minutes to distribute evenly. It was dripped through a 26 gauge needle using a 1 ml syringe into a calcium chloride bath (13.32 g/L). It was left to incubate for 30 minutes to solidify microcapsules. Then rinsed 1× in a solution also containing the dendrimer conjugate to prevent loss of component from the microcapsules. Then dried overnight in a vacuum over dessicant. The loaded microbeads were then added to AGT dry-format medium or used by adding directly into a liquid medium.
The insulin concentration of the dendrimer-insulin-RGD conjugate was estimated to be ˜2 mg/ml (pg 165/168). It needed to be diluted in half to get to ˜1 mg/ml (1000 μg/ml). […]

Compound: CC(=O)NCCO [NAE, N-acetylethanolamine]
- Higher concentration needed to perform in a cell growth assay comparable to ethanolamine ([1]; FIG. 2A (Example 2)): 8-12 fold
- Multiple of the ethanolamine molar equivalent able to supplement an ethanolamine-sensitive line comparable to ethanolamine ([1]; FIG. 2A cell growth titration assay (figure legend)): 16-20 ×
- Multiple of the ethanolamine molar equivalent yielding similar growth potential to ethanolamine [1]: about 16 ×
- Multiple of the ethanolamine molar equivalent able to supplement an ethanolamine-sensitive line as well as ethanolamine ([1]; another set of experiments, 24 well culture trays, harvested at day 12): about 16 ×

Compound: NCCO [Unencapsulated ethanolamine, ethanolamine]
- Ethanolamine potency (activity) during ambient storage [2]: drops quickly
- Ethanolamine potency (activity) during ambient storage ([2]; listed as unprotected ethanolamine): dropped quickly

Compound: NCCOP(=O)(O)O [phoshorylethanolamine, phosphorylethanolamine]
- Multiple of the ethanolamine molar equivalent yielding similar growth potential to ethanolamine [1]: about 16 ×

Compound: alginate
- Inhibition of / interference with viability or growth of HeLa cells (HeLa cells): did not interfere with viability or growth of Hela cells

Compound: insulin [insulin alone]
- Potency and growth characteristics of HeLa cells (HeLa cells): equivalent potency and growth characteristics of HeLa cells

Compound: unencapsulated dendrimer (with insulin): insulin conjugated onto PAMAM 2.5 dendrimer with RGD sequences, dendrimer:RGD:insulin=1:7:12, not encapsulated
- Potency and growth characteristics of HeLa cells (HeLa cells): equivalent potency and growth characteristics of HeLa cells
- Potency of insulin at 4° C. [3]: comparable to that of insulin alone
